Data as given in PMC7057962, “The Two-Species Model of transketolase explains donor substrate-binding, inhibition and heat-activation” (Scientific Reports, 2020).
Where two headings read alike, the source gives them in different places.

Key:
[1] = target: T1, E. coli transketolase (TK; TKhigh / TKlow forms) (Escherichia coli, UniProt P27302, D469T/R520Q/S385Y); test: intrinsic fluorescence quenching (ex […] nm, em […] nm), double-Hill fit; assay type: binding
T1 construct: gene tktA; N-terminal His6 tag, expressed in E. coli XL10-gold from pQR791; homodimer; purified sample is a mix of TKhigh (oxidised) and TKlow subunits

[2] = target: T2, E. coli transketolase (TK; TKhigh / TKlow forms) (Escherichia coli, UniProt P27302); test: as above; assay type: binding; settings: read-out: Kd(high)^HPA
T2 construct: gene tktA; N-terminal His6 tag, expressed in E. coli XL10-gold from pQR791; homodimer; purified sample is a mix of TKhigh (oxidised) and TKlow subunits
T2 sequence (P27302 whole entry): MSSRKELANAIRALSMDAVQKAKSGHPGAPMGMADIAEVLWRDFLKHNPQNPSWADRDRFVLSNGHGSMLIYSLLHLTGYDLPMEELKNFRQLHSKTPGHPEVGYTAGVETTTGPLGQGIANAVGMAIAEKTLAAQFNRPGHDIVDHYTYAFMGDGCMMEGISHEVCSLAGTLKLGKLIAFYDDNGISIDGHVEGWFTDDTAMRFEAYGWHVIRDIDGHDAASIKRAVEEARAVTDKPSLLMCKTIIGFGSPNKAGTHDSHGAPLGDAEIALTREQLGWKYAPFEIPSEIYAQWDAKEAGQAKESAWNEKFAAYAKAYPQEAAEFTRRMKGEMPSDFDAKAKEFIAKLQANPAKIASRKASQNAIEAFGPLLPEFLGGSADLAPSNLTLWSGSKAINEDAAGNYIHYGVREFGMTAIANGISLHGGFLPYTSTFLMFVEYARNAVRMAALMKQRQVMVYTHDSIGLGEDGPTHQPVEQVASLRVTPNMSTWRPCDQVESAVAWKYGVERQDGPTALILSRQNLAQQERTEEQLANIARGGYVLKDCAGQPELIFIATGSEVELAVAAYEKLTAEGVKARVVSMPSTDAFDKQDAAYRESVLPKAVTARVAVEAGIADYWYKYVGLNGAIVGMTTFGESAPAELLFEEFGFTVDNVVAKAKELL

T1 sequence (P27302 whole entry S385Y/D469T/R520Q): as the sequence (P27302 whole entry) above, with S385Y, D469T, R520Q counted along it

Row | Kd ([1]; read-out: Kd(high)^TPP) [mM] | Kd ([1]; read-out: Kd(high)^HPA) [mM] | Kd [2] [mM] | SMILES
1 | 0.0066 ± 0.00164 |  |  | Cc1ncc(C[n+]2csc(CCO[P@](=O)(O)OP(=O)(O)O)c2C)c(N)n1 [TPP, thiamine pyrophosphate]
2 |  | 3.61 ± 0.31 | 3.42 ± 0.45 | O=C(O)C(=O)CO [HPA, β-hydroxypyruvate]
